# ChEMBL document CHEMBL4825707, “Quantum mechanical study on the activation mechanism of human carbonic anhydrase VII cluster model with bis-histamine schiff bases and bis-spinaceamine derivatives” (Bioorg Med Chem, 2021)
# Target: Carbonic anhydrase 7 (Homo sapiens) (UniProt P43166)
# Test: Activation of human carbonic anhydrase VII by stopped flow CO2 hydrase assay
# Conditions: Brain, filed as activator
# Chain of Carbonic anhydrase 7 (Homo sapiens) (P43166 whole entry): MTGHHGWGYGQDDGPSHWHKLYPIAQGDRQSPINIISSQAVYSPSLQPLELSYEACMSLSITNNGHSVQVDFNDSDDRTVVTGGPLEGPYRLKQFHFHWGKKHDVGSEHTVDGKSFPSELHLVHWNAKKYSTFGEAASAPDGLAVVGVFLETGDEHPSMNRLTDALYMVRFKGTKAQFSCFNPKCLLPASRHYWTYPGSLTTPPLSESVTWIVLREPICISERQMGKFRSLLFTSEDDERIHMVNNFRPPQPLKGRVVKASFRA
row,Compound,Ka [µM]
1,NCCc1c[nH]cn1,37.6
2,C(=N/CCc1c[nH]cn1)/c1ccc(/C=N/CCc2c[nH]cn2)o1,0.085
3,c1nc2c([nH]1)C(c1ccc(C3NCCc4nc[nH]c43)o1)NCC2 (stereo not drawn),0.035
4,c1nc2c([nH]1)C(c1ccc(C3NCCc4nc[nH]c43)cc1)NCC2 (stereo not drawn),0.032
5,c1cc(C2NCCc3nc[nH]c32)cc(C2NCCc3nc[nH]c32)c1 (stereo not drawn),0.039

# Results, then the compound that gave them:
row,Ka [µM],Compound
1,9.02,C(=N\CCc1c[nH]cn1)/c1ccc(/C=N/CCc2c[nH]cn2)cc1
2,18.7,C(=N/CCc1c[nH]cn1)/c1cccc(/C=N/CCc2c[nH]cn2)c1
3,21.3,C(=N/CCc1c[nH]cn1)/c1ccccc1/C=N/CCc1c[nH]cn1
